Activity calls are given as the source filed them.
Experiments:
[1] = target: Prothrombin (Homo sapiens, UniProt P00734); experiment: Thrombin 1536 HTS Dose Response Confirmation. [Related pubchem assays: 1046 (Thrombin 1536 HTS; hits were confirmed in this assay)]; assay type: functional
[2] = target: T1, Scavenger receptor class B member 1 (Mus musculus, UniProt Q61009); experiment: mouse SR-BI DiI-HDL uptake blockers – ldlA[mSR-BI] cells, fluorescence, cherry pick, dose response (AID 493194); assay type: functional, cell-based;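 further: cellular uptake of fluorescent DiI-labeled HDL measured as cell fluorescence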
T1 sequence (Q61009 whole entry): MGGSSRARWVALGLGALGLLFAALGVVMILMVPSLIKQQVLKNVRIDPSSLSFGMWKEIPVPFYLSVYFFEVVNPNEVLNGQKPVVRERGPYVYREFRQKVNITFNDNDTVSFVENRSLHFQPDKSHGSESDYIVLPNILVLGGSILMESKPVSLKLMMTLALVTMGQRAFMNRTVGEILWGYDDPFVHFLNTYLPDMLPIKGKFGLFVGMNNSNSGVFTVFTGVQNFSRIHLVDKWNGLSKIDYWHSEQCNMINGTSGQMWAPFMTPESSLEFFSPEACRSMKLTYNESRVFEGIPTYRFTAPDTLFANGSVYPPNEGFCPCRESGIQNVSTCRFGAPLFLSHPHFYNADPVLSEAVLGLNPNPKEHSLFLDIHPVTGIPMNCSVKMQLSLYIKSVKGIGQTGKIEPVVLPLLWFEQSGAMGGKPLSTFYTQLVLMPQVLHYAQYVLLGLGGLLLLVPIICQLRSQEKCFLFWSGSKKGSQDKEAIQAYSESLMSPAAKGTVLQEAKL

[3] = target: T2, X-box-binding protein 1 (Homo sapiens, UniProt P17861); assay type: functional, Cricetulus griseus;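 further: confirmatory dose-response counter-screen serving a CHOP assay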
T2 sequence (P17861 whole entry): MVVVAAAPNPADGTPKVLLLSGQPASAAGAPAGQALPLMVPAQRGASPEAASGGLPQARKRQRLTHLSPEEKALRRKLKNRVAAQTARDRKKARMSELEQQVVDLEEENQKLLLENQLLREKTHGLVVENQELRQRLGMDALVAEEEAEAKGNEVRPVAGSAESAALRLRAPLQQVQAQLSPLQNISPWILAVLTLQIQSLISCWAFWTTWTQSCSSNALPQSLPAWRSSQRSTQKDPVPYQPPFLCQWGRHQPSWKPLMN

[4] = target: T3, Corticotropin-releasing factor receptor 2/Corticotropin-releasing factor-binding protein (Homo sapiens, UniProt P24387+Q13324); experiment: activators of CRF receptor 2 with binding protein – uHTS hits, confirmation (AID 602473); assay type: functional; settings: read-out: EC50_Mean
T3 sequence (Q13324 whole entry): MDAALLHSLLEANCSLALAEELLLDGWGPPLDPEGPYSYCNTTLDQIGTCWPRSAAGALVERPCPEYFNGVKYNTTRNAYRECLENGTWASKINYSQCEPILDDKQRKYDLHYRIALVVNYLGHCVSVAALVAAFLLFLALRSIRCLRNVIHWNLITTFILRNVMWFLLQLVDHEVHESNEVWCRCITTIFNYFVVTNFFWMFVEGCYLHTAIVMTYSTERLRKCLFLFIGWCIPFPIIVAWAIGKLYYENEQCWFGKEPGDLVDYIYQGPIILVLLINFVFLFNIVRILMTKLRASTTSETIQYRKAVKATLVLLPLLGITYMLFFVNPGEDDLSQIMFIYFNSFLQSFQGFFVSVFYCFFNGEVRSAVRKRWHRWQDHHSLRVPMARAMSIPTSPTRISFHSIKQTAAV
T3 sequence (P24387 whole entry): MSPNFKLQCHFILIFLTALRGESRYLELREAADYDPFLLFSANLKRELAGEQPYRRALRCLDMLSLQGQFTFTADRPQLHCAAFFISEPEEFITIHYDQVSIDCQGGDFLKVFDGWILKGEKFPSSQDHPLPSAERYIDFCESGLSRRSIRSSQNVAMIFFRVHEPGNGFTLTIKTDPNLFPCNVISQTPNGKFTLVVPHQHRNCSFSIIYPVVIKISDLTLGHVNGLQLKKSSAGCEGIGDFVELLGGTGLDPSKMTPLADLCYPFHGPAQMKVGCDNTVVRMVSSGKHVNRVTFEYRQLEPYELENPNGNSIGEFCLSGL

[5] = target: T4, Aryl hydrocarbon receptor (Homo sapiens, UniProt P35869); experiment: Luminescence-based cell-based high throughput dose response assay for activators of the Aryl Hydrocarbon Receptor (AHR). [Related pubchem assays: 2796 (Primary screen (AHR activators in singlicate)), 2845 (Confirmation screen (AHR activators in triplicate)), 434939 (Counterscreen (PXR activators in triplicate)), 2804 (Summary (AHR activators))]; assay type: ADME
T4 sequence (P35869 whole entry): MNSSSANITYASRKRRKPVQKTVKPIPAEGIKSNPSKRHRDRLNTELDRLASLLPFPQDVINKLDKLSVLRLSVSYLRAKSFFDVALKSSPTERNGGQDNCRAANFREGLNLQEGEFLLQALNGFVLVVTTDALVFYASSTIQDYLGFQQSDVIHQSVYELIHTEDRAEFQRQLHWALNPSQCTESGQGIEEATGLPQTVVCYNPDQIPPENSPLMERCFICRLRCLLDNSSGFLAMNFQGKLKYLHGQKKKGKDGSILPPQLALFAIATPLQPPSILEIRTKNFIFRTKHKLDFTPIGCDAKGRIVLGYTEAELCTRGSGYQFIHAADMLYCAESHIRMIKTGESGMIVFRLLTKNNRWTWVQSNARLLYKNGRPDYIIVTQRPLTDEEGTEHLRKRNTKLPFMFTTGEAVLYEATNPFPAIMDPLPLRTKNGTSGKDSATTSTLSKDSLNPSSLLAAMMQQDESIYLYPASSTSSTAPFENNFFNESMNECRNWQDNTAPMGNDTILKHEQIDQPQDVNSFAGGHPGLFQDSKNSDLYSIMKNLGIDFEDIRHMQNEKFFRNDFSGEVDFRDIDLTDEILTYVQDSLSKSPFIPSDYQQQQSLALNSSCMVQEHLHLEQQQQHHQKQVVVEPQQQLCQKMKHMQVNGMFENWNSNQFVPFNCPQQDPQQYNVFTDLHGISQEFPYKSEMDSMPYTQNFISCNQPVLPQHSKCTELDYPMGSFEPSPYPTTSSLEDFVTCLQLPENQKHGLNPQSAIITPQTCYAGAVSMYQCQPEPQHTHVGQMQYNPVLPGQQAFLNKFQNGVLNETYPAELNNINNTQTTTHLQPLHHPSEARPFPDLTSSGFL

[6] = target: T5, Bcl-2-like protein 10 (Homo sapiens, UniProt Q9HD36); experiment: Bcl-B/TR3 peptide binding disruption – biochemical, fluorescence polarization, FITC-TR3 peptide, selectivity assay for Bfl-1 inhibitor project, primary screen (AID 748);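 further: fluorescence polarization from a fluorescein-labelled TR3 peptide binding purified Bcl-B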
T5 sequence (Q9HD36 whole entry): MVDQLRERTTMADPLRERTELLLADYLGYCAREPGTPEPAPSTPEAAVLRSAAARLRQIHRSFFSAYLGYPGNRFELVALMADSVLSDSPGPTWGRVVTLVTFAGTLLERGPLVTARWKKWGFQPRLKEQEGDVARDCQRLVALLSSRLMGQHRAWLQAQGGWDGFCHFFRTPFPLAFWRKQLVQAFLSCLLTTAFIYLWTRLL

[7] = Trypanosoma cruzi growth suppression in host cells – NIH3T3 host cells, beta-gal luminescence, confirmation (AID 2044); assay type: functional, cell-based;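 further: intracellular parasites grown in NIH/3T3 mouse fibroblasts as host cells; luminescent beta-galactosidase reporter signal from transgenic T. cruzi replicating inside host cells; inhibitors lower the luminescence signal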
[8] = NIH3T3 cell viability loss – ATP luminescence, mouse fibroblasts, counter-screen, dose response (AID 2010); assay type: functional, cell-based;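 further: cells exposed to compound for about 90 hours before reading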
[9] = test system: INS1; experiment: INS-1E survival protection against cytokine death – cell-based, luminescence, retest, dose response (AID 449756); assay type: functional; settings: Rattus norvegicus;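 further: cell death triggered by IL-1 beta plus TNF-alpha plus IFN-gamma mixture; protective hits raise ATP signal compared with cytokine alone wells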
[10] = cells
[11] = A Cell Based Secondary Assay To Explore Cytotoxicity of Compounds that Sensitize Mycobacterium Tuberculosis to Beta-Lactam Antibiotics.; assay type: functional
[12] = target: T6, Cytochrome P450 1A2 (Homo sapiens, UniProt P05177);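 further: PubChem cytochrome P450 panel assay, CYP1A2 panel member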
T6 sequence (P05177 whole entry): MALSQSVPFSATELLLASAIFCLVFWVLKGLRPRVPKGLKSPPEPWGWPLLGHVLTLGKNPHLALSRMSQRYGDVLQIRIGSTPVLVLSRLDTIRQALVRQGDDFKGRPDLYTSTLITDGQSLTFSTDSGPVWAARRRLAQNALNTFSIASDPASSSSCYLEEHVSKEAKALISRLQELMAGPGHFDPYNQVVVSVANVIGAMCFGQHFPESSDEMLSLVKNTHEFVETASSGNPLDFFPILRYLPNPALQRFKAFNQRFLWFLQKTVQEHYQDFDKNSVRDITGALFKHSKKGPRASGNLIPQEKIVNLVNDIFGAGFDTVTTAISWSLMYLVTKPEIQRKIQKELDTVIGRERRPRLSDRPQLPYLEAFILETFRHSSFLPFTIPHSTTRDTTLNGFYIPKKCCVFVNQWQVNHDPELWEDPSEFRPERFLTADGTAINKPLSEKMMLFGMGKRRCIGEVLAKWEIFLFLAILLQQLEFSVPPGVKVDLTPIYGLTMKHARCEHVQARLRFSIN

[13] = target: Cytochrome P450 2C9 (Homo sapiens, UniProt P11712)
[14] = target: T7, Heat shock factor protein 1 (Mus musculus, UniProt P38532); experiment: decrease of HSF1-responsive luciferase luminescence – cell-based, NIH3T3, dose retest, confirmation (AID 2382); assay type: functional;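 further: NIH3T3 fibroblasts with HSF1-driven luciferase reporter stressed by proteasome inhibitor MG132; luminescence from HSF1-driven luciferase expression after 8 hours of MG132 stress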
T7 sequence (P38532 whole entry): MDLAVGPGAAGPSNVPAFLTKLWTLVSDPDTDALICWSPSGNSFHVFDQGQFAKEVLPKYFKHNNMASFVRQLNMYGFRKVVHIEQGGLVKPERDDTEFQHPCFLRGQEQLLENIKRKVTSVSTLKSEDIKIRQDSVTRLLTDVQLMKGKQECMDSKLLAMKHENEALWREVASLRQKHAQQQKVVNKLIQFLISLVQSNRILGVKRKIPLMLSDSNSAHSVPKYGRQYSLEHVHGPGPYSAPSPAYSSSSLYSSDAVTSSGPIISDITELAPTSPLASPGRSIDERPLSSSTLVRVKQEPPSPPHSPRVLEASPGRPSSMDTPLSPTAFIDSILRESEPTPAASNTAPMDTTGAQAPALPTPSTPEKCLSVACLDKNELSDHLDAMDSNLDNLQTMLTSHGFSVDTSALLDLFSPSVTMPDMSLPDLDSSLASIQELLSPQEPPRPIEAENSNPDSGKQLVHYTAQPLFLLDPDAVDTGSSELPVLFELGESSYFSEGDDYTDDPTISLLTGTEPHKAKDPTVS

[15] = target: E3 ubiquitin-protein ligase Mdm2 (Homo sapiens, UniProt Q00987); experiment: MDM2-luc reporter signal enhancers, multi-concentration potency testing, MDM2 ubiquitin-protein ligase inhibitor program, whole-cell format, luminescence detection, 384-well microplate (AID 1394); assay type: functional;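 further: MDM2 E3 inhibitors raise luminescence so EC50 is for signal enhancement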
[16] = target: T8, Polyadenylate-binding protein 1 (Homo sapiens, UniProt P11940); experiment: MLLE binding blockers, Cy5 peptide tracer – biochemical, fluorescence polarization, Cy5-PAM2 peptide, secondary, miRNA deadenylation inhibitor project, dose response (AID 602260); assay type: functional; settings: read-out: IC50_Mean
[17] = target: T8, Polyadenylate-binding protein 1; experiment: MLLE domain peptide-binding blockers, IC50 – biochemical, fluorescence polarization, FITC-PAM2 peptide, dose response (AID 602259); assay type: functional; settings: read-out: IC50_Mean
[18] = Luminescence Cell-Based Dose Retest to Confirm Inhibitors of Cancer Stem Cells. [Related pubchem assays (depositor defined):AID2717, AID2721]; assay type: functional; settings: Homo sapiens

T8 sequence (P11940 whole entry, the tested form may be a part): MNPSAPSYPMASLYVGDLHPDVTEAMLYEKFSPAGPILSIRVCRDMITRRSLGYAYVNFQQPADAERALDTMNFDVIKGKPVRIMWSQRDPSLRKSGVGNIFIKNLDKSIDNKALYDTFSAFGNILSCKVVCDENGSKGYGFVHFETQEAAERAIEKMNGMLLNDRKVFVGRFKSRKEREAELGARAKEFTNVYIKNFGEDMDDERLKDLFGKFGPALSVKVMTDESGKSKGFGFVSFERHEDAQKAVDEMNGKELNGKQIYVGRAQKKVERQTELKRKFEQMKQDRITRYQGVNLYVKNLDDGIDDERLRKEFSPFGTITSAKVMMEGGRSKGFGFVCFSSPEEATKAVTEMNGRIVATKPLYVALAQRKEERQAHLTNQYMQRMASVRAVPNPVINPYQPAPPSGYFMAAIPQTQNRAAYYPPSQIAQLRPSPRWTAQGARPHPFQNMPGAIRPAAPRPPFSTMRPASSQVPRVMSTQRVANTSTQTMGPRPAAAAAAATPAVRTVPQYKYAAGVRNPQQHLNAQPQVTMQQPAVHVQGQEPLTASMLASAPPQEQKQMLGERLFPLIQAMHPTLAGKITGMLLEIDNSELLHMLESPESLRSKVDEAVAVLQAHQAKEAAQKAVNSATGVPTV
Sequence of Cytochrome P450 2C9 (P11712 whole entry): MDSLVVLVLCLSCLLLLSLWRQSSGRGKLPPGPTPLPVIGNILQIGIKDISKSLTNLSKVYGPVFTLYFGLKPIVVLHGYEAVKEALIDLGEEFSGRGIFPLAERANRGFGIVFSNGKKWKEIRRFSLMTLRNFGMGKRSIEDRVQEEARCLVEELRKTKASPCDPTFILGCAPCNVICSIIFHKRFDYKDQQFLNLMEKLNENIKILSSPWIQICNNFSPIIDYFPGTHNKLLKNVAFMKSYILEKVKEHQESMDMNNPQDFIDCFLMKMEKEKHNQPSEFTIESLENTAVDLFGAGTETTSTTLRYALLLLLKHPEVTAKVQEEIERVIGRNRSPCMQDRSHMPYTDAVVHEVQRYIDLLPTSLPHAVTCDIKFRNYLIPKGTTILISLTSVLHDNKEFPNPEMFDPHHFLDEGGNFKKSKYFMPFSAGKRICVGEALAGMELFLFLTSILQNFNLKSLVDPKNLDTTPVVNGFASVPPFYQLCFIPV
Sequence of E3 ubiquitin-protein ligase Mdm2 (Q00987 whole entry): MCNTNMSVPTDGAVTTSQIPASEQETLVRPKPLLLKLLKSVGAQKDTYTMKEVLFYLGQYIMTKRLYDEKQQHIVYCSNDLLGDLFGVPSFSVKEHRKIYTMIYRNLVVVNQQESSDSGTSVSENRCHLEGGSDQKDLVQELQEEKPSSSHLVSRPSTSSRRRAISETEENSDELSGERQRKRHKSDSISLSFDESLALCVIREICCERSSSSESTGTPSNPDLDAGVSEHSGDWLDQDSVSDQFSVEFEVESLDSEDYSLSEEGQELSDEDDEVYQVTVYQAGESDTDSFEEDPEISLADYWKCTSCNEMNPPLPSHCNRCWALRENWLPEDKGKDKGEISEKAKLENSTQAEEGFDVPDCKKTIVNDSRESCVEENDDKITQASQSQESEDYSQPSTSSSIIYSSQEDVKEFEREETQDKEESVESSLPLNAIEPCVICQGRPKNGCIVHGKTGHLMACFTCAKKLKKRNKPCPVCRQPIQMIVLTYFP

Compound: Cc1nnc(SCc2nnc(-c3ccccc3Br)o2)n1-c1ccccc1
- IC50 [1]: > 50 µM (not active)

Compound: Nc1ccc(Nc2nc(-c3cccs3)cs2)cc1
- AC50 [2]: 8.4 µM (active)

Compound: COc1cc(/C=C(/C#N)c2nc(O)c3ccccc3n2)ccc1O
- Absolute IC50 (XBP1) [3]: 10 µM
- EC50 [4]: > 53 µM (inactive)

Compound: COc1cc(/C=N/NC(=O)c2cccnc2)cc2c1OCO2
- EC50 [5]: 6.16 µM (active)

Compound: Brc1ccc2ncnc(Nc3ccc(N4CCOCC4)cc3)c2c1
- IC50 [6]: > 50 µM (inactive)
- EC50 [7]: 0.92 µM (active)
- EC50 [5]: 1.14 µM (active)
- EC50 [8]: > 60 µM (not active)

Compound: CCCNc1nc(Cl)nc(Nc2ccc(Cl)cc2)n1
- EC50 [5]: 3.38 µM (active)

Compound: COc1ccc2c(c1)N(C)/C(=C/c1cccc[n+]1C)S2
- EC50 [7]: < 0.1 µM (active)
- EC50 [8]: > 60 µM (not active)
- AC50 [9]: 1.13 µM (active)
- EC50 [10]: 0.029 µM (active)

Compound: O=C(CN(C(=O)Cn1nnc(-c2ccc(F)cc2)n1)C1CCCC1)NC1CCCC1
- AC50 [2]: 0.184 µM (active)

Compound: CN1CCC(OC(=O)c2ccc(Br)cc2)CC1
- EC50 [7]: < 0.1 µM (active)
- EC50 [8]: > 60 µM (not active)
- EC50 [10]: 0.029 µM (active)

Compound: Fc1ccccc1N1CCN(C2CCCN(Cc3cccc(C(F)(F)F)c3)C2)CC1 (centres undefined)
- EC50 [7]: < 0.1 µM (active)
- EC50 [8]: > 60 µM (not active)
- EC50 [10]: 0.656 µM (active)

Compound: CCOc1ccc(C2=C/C(=C/c3cccnc3)C(=O)O2)cc1
- Absolute IC50 (XBP1) [3]: 10 µM

Compound: CC(=O)Nc1ccc(Nc2ncc([N+](=O)[O-])c(Nc3ccc(NC(C)=O)cc3)n2)cc1
- CC50 [11]: > 40 µM (active)
- AC50 [12]: 22.4 µM (inconclusive)
- AC50 [13]: 0.355 µM (inconclusive)

Compound: CC(=O)c1c(OC(=O)c2ccco2)c2ccccc2n1C
- IC50 [1]: 3.99 µM (active)

Compound: COc1cc(/C=C/c2nc(N)nc(-c3ccccc3O)n2)cc(OC)c1OC
- EC50 [14]: 36.1 µM (active)
- Absolute IC50 (XBP1) [3]: 10 µM

Compound: Oc1nc2cc3c(cc2cc1CN(Cc1nnnn1CC1CCCO1)C1CCCC1)OCO3 (centres undefined)
- EC50 [15]: 47.2 µM (not active)
- IC50 [16]: > 66 µM (inactive)
- IC50 [17]: > 66 µM (inactive)

Compound: COc1ccc2sc(-c3ccc(N(C)C)cc3)c(C#CC(C)(C)O)c2c1
- AC50 [2]: 2.73 µM (active)

Compound: C=CCNCCCOc1ccc(Cl)cc1C(C)(C)C
- CC50 [11]: 28.8 µM (active)
- AC50 [18]: 16.1 µM (active)
